The values below come from ChEMBL document CHEMBL6182851, “Discovery of dual CDK4/6 and BRD4 inhibitor as apoptosis and autophagy inducers against NSCLC in vitro and in vivo” (Eur J Med Chem, 2025).

The term inhibition denotes the change of the read-out against control, counted positive when it falls. For orientation: IC50 means the midpoint of a concentration-inhibition curve.

Test [1] deals with Bromodomain-containing protein 4 (Homo sapiens) (UniProt O60885). To be noted: dose 1000.0 nM.
Description: Inhibition of BRD4 BD2 (unknown origin) assessed as inhibition ratio at 1000 nM relative to control
The test system of test [2] is NCI-H460. Put plainly: Induction of cell cycle arrest in human NCI-H460 cells assessed as accumulation of cells at G1 phase at 20 uM in presence of ribociclib incubated for 48 hrs by PI staining based flow cytometric analysis (reference value: 56.7 %). It counts as functional.
In test [3] the test system is A549. Kind of test: Antitumor activity against human A549 cells assessed as inhibition of cell viability incubated for 48 hrs in presence of ribociclib by MTT assay. The test is classed as functional, cell-based. To be noted: A549, 48 h. In general terms: Tetrazolium dyes change colour on reduction, which living cells bring about.
Test [4] has as its system NCI-H460. Kind of test: Induction of cell cycle arrest in human NCI-H460 cells assessed as accumulation of cells at S phase at 20 uM in presence of ribociclib incubated for 48 hrs by PI staining based flow cytometric analysis (reference value: 33.3 %). It counts as functional.
For test [5], the system named is NCI-H1299. Put plainly: cells. To be noted: Homo sapiens, NCI-H1299, 48 h.
Description: Antitumor activity against human NCI-H1299 cells assessed as inhibition of cell viability incubated for 48 hrs by MTT assay
Test [6] has as its system NCI-H460. Kind of test: Induction of apoptosis in human NCI-H460 cells assessed as late apoptotic cells at 20 uM incubated for 48 hrs by Annexin V-PE/7-AAD staining based flow cytometric analysis (reference value: 3.76 %). The test is classed as functional. (In flow cytometry, cells or beads pass a laser one at a time.)
The subject of test [7] is NCI-H460. Kind of test: Induction of autophagy in human NCI-H460 cells assessed as increase in autophagosomes at 20 uM incubated for 48 hrs by MDC staining and LC3B immunofluorescence analysis. The test is classed as functional, cell-based.
Test [8] has as its system NCI-H460. Kind of test: Antitumor activity against human NCI-H460 cells xenografted in female BALB/c nude mouse assessed as tumor growth inhibition at 50 mg/kg, ip administered for 21 consecutive days in presence of ribociclib relative to control. The test is classed as functional. As to conditions: NCI-H460, 504 h, time 21 day, read-out: TGI. On the technique in general: A xenograft is tissue or cells of one species grown in another, often human tumour cells in immunodeficient mice.

Test [9] has as its system NCI-H460. Kind of test: Induction of cell cycle arrest in human NCI-H460 cells assessed as accumulation of cells at G1 phase at 20 uM incubated for 48 hrs by PI staining based flow cytometric analysis (reference value: 56.7 %). It counts as functional.
Test [10] has as its system NCI-H460. Put plainly: Induction of autophagy in human NCI-H460 cells assessed as increase in acidic vesicles at 20 uM incubated for 48 hrs by MDC staining and LC3B immunofluorescence analysis. It counts as functional, cell-based.
Test [11] has as its system NCI-H460. Put plainly: cells. To be noted: Homo sapiens, NCI-H460, 48 h.
Description: Antitumor activity against human NCI-H460 cells assessed as inhibition of cell viability incubated for 48 hrs by MTT assay
Test [12] deals with NCI-H460. Put plainly: Induction of apoptosis in human NCI-H460 cells assessed as early apoptotic cells at 20 uM incubated for 48 hrs in presence of ribociclib by Annexin V-PE/7-AAD staining based flow cytometric analysis (reference value: 3.58 %). The test is classed as functional.
For test [13], the system named is NCI-H460. Kind of test: Induction of apoptosis in human NCI-H460 cells assessed as early apoptotic cells at 20 uM incubated for 48 hrs by Annexin V-PE/7-AAD staining based flow cytometric analysis (reference value: 3.58 %). It counts as functional.
For test [14], the system named is NCI-H460. Kind of test: Induction of cell cycle arrest in human NCI-H460 cells assessed as accumulation of cells at G2 phase at 20 uM incubated for 48 hrs by PI staining based flow cytometric analysis (reference value: 11.0 %). The test is classed as functional.
The subject of test [15] is A549. Kind of test: cells. To be noted: Homo sapiens, A549, 48 h.
Description: Antitumor activity against human A549 cells assessed as inhibition of cell viability incubated for 48 hrs by MTT assay
For test [16], the system named is NCI-H460. Kind of test: Induction of apoptosis in human NCI-H460 cells assessed as necrotic cells at 20 uM incubated for 48 hrs by Annexin V-PE/7-AAD staining based flow cytometric analysis (reference value: 0.79 %). It counts as functional.
Test [17] concerns NCI-H460. Put plainly: Induction of cell cycle arrest in human NCI-H460 cells assessed as accumulation of cells at G2 phase at 20 uM in presence of ribociclib incubated for 48 hrs by PI staining based flow cytometric analysis (reference value: 11.0 %). The test is classed as functional.
Test [18] concerns NCI-H460. Kind of test: Induction of apoptosis in human NCI-H460 cells assessed as necrotic cells at 20 uM incubated for 48 hrs in presence of ribociclib by Annexin V-PE/7-AAD staining based flow cytometric analysis (reference value: 0.79 %). The test is classed as functional.
Test [19] deals with NCI-H460. Kind of test: Induction of apoptosis in human NCI-H460 cells assessed as late apoptotic cells at 20 uM incubated for 48 hrs in presence of ribociclib by Annexin V-PE/7-AAD staining based flow cytometric analysis (reference value: 3.76 %). It counts as functional.
The subject of test [20] is NCI-H460. Put plainly: Antitumor activity against human NCI-H460 cells assessed as inhibition of cell viability incubated for 48 hrs in presence of ribociclib by MTT assay. To be noted: NCI-H460, 48 h. The test is classed as functional, cell-based.
In test [21] the test system is NCI-H460. Put plainly: Induction of cell cycle arrest in human NCI-H460 cells assessed as accumulation of cells at S phase at 20 uM incubated for 48 hrs by PI staining based flow cytometric analysis (reference value: 33.3 %). The test is classed as functional.
In test [22] the test system is NCI-H460. Put plainly: Induction of autophagy in human NCI-H460 cells assessed as increase in number of autophagosomes at 20 uM in presence of ribociclib incubated for 48 hrs by MDC staining and LC3B immunofluorescence analysis. The test is classed as functional, cell-based.
Test [23] deals with NCI-H1299. Put plainly: Antitumor activity against human NCI-H1299 cells assessed as inhibition of cell viability incubated for 48 hrs in presence of ribociclib by MTT assay. As to conditions: NCI-H1299, 48 h. It counts as functional, cell-based.
The test system of test [24] is NCI-H460. Kind of test: Antitumor activity against human NCI-H460 cells xenografted in female BALB/c nude mouse assessed as tumor growth inhibition at 50 mg/kg, ip administered for 21 consecutive days relative to control. It counts as functional. As to conditions: NCI-H460, 504 h, time 21 day, read-out: TGI.

Activity calls are given as the source filed them. The rule behind the calls is not given here.

The molecule `COc1cc(OC)c2c(=O)[nH]c(-c3cc(C)c(OCCO)c(C)c3)nc2c1` [APABETALONE] showed an inhibition in [1] of 89.8%. The Activity in the test with NCI-H460 [2] is 87.9%; with NCI-H460 [4], 9.38%; in the test with NCI-H460 [6] it was 4.99%; with NCI-H460 [9] it was 56%; in the test with NCI-H460 [12], 13.8%; in the test with NCI-H460 [13] it was 2.05%. For the same molecule, the Activity is given as 13% with NCI-H460 [14]; 1.59% in the test on NCI-H460 [16]; 4.4% in the test with NCI-H460 [17]; 1.11% in the test on NCI-H460 [18]; 5.71% in the test on NCI-H460 [19]; 30.1% in the test on NCI-H460 [21]. The IC50 was 18.8 µM with A549 [3]; 18.4 µM in the test on NCI-H1299 [5]; over 40 µM in the test on NCI-H460 [11]; over 40 µM with A549 [15]; 10.3 µM with NCI-H460 [20]; 8.16 µM in the test on NCI-H1299 [23]. Also, the outcome in the test with NCI-H460 [7], with NCI-H460 [10] and in the test on NCI-H460 [22] was inactive. For the same molecule, the inhibition in vivo at 50 mg/kg in the test on NCI-H460 [8] is 72%; with NCI-H460 [24], 37.5%.
